Experimental data from US20030232862A1 (priority 2002, published 2003).
“Also recorded” adds a separate entry of the source. Structures can show the parent of a compound that is named as a salt.

Assays:
[1] = tested on: SW-480 colon adenocarcinoma cells; assay: Apoptosis fold induction protocol (DNA fragmentation, Table 4); conditions: Homo sapiens, SW480, read-out: Fold induction at 100 μM (apoptosis), 100 μM; cell line not given
[2] = target: T1, cGMP binding sites of GST-cGB-PDE5 fusion protein (Homo sapiens, UniProt O76074); assay: cGMP binding assay with GST-cGB-PDE5 fusion protein; conditions: 3H-cGMP 2 μM
T1 construct: made in house; host or cells: E. coli BL21 (DE3)

Cyclooxygenase (COX) = target: T2, Cyclooxygenase (COX) (Ovis aries, UniProt P05979); assay: COX inhibition assay, single dose screen (Table 2); format: biochemical
T2 sequence (P05979 25-600): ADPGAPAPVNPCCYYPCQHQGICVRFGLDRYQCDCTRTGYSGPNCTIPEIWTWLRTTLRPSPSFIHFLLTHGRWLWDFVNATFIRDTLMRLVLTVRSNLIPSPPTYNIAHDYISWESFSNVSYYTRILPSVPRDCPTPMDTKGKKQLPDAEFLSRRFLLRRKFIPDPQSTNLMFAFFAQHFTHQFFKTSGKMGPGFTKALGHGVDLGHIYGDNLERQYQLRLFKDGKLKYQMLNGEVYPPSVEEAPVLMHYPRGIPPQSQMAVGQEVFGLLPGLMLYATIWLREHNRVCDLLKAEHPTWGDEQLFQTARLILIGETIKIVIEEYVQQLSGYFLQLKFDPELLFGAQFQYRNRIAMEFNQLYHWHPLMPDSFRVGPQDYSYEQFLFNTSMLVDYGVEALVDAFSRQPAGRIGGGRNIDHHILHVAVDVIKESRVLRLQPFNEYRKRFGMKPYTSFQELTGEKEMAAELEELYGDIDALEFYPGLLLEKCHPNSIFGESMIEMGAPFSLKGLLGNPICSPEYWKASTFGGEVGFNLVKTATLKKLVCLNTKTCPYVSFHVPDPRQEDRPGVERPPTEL

[3] = target: T3, purified cyclooxygenase (Type 1) from ram seminal vesicles (Ovis aries, UniProt P05979); assay: Purified cyclooxygenase (Type 1) activity; format: biochemical; conditions: FIG. 5
T3 construct: using purified cyclooxygenase from ram seminal vesicles as described previously; from tissue; host or cells: ram seminal vesicles
T3 sequence (P05979 25-600): T2 sequence (P05979 25-600)

[4] = tested on: PDE4 purified from human colon HT-29 cultured tumor cells; assay: PDE4 inhibition assay; format: biochemical
Procedure: (Thompson, W. J., Teraski, W. L., Epstein, P. M., Strada, S. J., Advances in Cyclic Nucleotide Research, 10:69-92, 1979, which is incorporated herein by reference). […] The mixture is incubated at 30° C. for 10 minutes with isolated PDE of this invention. Reactions are terminated, for example, by boiling the reaction mixture for 75 seconds. After cooling on ice, 100 μl of 0.5 mg/mL snake venom (O. Hannah venom available from Sigma) is added and incubated for 10 minutes at 30° C. This reaction is then terminated by the addition of an alcohol, e.g. 1 mL of 100% methanol. Assay samples are applied to 1 mL Dowex 1-X8 column; and washed with 1 mL of 100% methanol. The amount of radioactivity in the breakthrough and the wash from the column is combined and measured with a scintillation counter. The degree of phosphodiesterase inhibition is determined by calculating the amount of radioactivity in drug-treated reactions and comparing against a control sample (a reaction mixture lacking the tested compound but with drug solvent).

[5] = target: cGMP PDE purified from human colon HT-29 cultured tumor cells (Homo sapiens, UniProt O76074); assay: cGMP PDE inhibition assay; format: biochemical; conditions: for PDE Inhibition: Table 9 qualitative profile; for IC50: read-out: IC50 for inhibition of cGMP PDE
HT-29 cells = assay: Growth inhibition of HT-29 cells (SRB assay; trypan blue counting in time course); format: cell-based, human; conditions: for Growth Inhibition: Table 9 qualitative profile
[6] = tested on: HT-29 colon adenocarcinoma cells; assay: Apoptosis by DNA fragmentation assay in HT-29 cells; format: cell-based, human; conditions: for Apoptosis: Table 9 qualitative profile; on Apoptosis: key: −: Not active; +: Slightly active; + +: Moderately active; + + +: Strongly active; + + + +: Highly active
[7] = tested on: premalignant lesions in mouse mammary gland organ culture; assay: Mammary gland organ culture model; format: cell-based; conditions: Table 9 qualitative profile; further: key: −: Not active; +: Slightly active; + +: Moderately active; + + +: Strongly active; + + + +: Highly active
Excerpt: Test compounds identified by the above methods can be tested for antineoplastic activity by their ability to inhibit the incidence of pre-neoplastic lesions in a mammary gland organ culture system. This mouse mammary gland organ culture technique has been successfully used by other investigators to study the effects of known antineoplastic agents such as certain NSAIDs, retinoids, tamoxifen, selenium, and certain natural products, and is useful for validation of the screening method of the present invention.
For example, female BALB/c mice can be treated with a combination of estradiol and progesterone daily, in order to prime the glands to be responsive to hormones in vitro. The animals are sacrificed, and thoracic mammary glands are excised aseptically and incubated for ten days in growth media supplemented with insulin, prolactin, hydrocortisone, and aldosterone. DMBA (7,12-dimethylbenz(a)anthracene) is added to medium to induce the formation of premalignant lesions. Fully developed glands are then deprived of prolactin, hydrocortisone, and aldosterone, resulting in the regression of the glands but not the pre-malignant lesions.
The test compound is dissolved in DMSO and added to the culture media for the duration of the culture period. At the end of the culture period, the glands are fixed in 10% formalin, stained with alum carmine, and mounted on glass slides. The incidence of forming mammary lesions is the ratio of the glands with mammary lesions to […]. The incidence of mammary lesions in test compound treated glands is compared with that of the untreated glands.
The extent of the area occupied by the mammary lesions can be quantitated by projecting an image of the gland onto a digitation pad. The area covered by the gland is traced on the pad and considered as 100% of the area. The space covered by each of the non-regressed structures is also outlined on the digitization pad and quantitated by the computer.
Mammary gland organ culture experiment were performed as previously described (Mehta and Moon, Cancer Research, 46: 5832-5835, 1986).

human breast xenograft = conditions: in vivo; cited from earlier work
[8] = tested on: LNCaP prostate tumor cell line; assay: Histone-associated DNA fragmentation in LNCaP cells; format: cell-based; conditions: 50 μM, up to 4 days
Procedure: (§1) The androgen-sensitive prostate tumor cell line, LNCaP (from ATCC (Rockville, Md.)) was propagated under standard conditions using […] medium containing 5% fetal calve serum and 2 mM glutamine. Primary prostate epithelial cell cultures (PrEC) derived from normal prostate (from Clonetics Inc. (San Diego, Calif.)) were grown under the same conditions as the tumor cell line except a serum-free medium optimized for the growth of such cultures was used (Clonetics Inc). For the experiments, LNCaP or PrEC cells were seeded in 96 well plates at a density of 10,000 cells per well. After 24 hours, the cells were treated with either vehicle (0.1% DMSO) or 50 μM Compound I (free base) solubilized in DMSO. After various drug treatment times (4, 24, 48, 72, or 99 hours) the cells were lysed and processed for measurement of histone-associated DNA as an indicator of apoptotic cell death (see, Piazza et al., Cancer Research 57: 2452-2459, 1997).

[9] = Single, escalating dose human study; format: in vivo
28-day study in rats = format: in vivo
[10] = tested on: PrEC primary prostate epithelial cells derived from normal prostate; assay: Histone-associated DNA fragmentation in PrEC cells; format: cell-based; conditions: 50 μM, up to 4 days
Procedure: as §1

[11] = dog, in vivo
[12] = Seven-day dose-range finding study in rats; format: in vivo; conditions: any dose level
[13] = tested on: SW-480 colon adenocarcinoma cells
[14] = target: T4, PDE Peak A (PDE5) from SW480 cells (Homo sapiens, UniProt O76074); assay: cGMP hydrolysis by PDE Peak A (PDE5) isolated from SW480 cells; format: biochemical
T4 construct: To isolate the novel phosphodiesterase from SW480, approximately four hundred million SW480 cells were grown to confluence; endogenous in cells; host or cells: SW480 colon cancer cells; 105,000 g supernatant, DEAE-Trisacryl M fraction

[15] = target: T5, novel cGMP-specific PDE Peak B from SW480 cells (Homo sapiens, UniProt O00408); assay: cGMP hydrolysis by novel PDE Peak B isolated from SW480 cells; format: biochemical
T5 construct: IC50 Peak B (μM)
T5 sequence (O00408 whole entry): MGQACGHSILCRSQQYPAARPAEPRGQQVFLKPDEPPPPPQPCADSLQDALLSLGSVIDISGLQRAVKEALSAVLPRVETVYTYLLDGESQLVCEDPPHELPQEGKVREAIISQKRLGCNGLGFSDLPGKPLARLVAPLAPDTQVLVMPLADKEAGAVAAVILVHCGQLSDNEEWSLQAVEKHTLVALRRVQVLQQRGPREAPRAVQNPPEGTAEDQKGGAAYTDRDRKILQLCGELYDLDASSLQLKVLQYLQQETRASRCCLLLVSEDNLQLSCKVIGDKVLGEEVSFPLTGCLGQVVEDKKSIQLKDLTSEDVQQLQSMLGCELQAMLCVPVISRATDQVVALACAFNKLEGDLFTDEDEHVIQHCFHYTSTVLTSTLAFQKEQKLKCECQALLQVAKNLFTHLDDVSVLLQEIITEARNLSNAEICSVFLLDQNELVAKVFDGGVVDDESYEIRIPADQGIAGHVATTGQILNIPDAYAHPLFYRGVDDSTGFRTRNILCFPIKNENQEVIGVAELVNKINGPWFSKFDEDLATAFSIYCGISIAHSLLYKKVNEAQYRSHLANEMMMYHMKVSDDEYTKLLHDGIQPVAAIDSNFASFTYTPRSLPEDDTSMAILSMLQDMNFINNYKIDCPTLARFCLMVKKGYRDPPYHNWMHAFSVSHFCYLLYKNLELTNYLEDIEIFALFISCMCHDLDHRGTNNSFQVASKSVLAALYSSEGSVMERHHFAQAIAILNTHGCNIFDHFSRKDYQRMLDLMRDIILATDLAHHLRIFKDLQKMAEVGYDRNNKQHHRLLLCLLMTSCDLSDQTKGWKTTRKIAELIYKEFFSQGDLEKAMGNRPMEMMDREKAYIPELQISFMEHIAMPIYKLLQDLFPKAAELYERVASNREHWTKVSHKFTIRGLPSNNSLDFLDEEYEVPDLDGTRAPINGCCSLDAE

COc1cc(/C=C2/C(C)=C(CC(=O)O)c3cc(F)ccc32)cc(OC)c1OC [Compound B, (Z)-5-Fluoro-2-methyl-1-(3,4,5-trimethoxybenzylidene)-3-acetic acid]
fold induction at 100 µM [1]: > 2 | competition with cGMP in binding of GST-cGB-PDE5 [2]: do not bind to the cGMP binding sites of PDE5 | inhibition at 100 µM (Cyclooxygenase (COX)): < 25% | COX Inhibition (Cyclooxygenase (COX); Table 9 qualitative profile): − | COX-I inhibition [3]: neither test compound B and E significantly inhibits COX-I | IC50 [4]: 58 µM | PDE Inhibition [5]: + + + | inhibition at 10 µM ([5]; read-out: % Inhibition at 10 μM (cGMP PDE), 10 μM): < 25% | IC50 [5]: 18 µM | inhibition at 20 µM ([5]; read-out: inhibition of cGMP PDE at 20 μM, 20 μM): > 50% | Growth Inhibition (HT-29 cells): + + + | EC50 ([6]; Homo sapiens, HT-29, 48 hours): ~175 µM | Apoptosis [6]: + + + | Mammary Gland Organ Culture [7]: + +

COc1cc2ncnc(Nc3ccc(F)c(Cl)c3)c2cc1OCCCN1CCOCC1 [Iressa, 4-quinazolinamine, N-(3-chloro-4-fluorophenyl)-7-methoxy-6-[3-(4-morpholinyl)propoxy]-(9CI)]
human breast xenograft growth (human breast xenograft): inhibits human breast xenograft growth

CC1=C(CC(=O)NCc2ccccc2)c2cc(F)ccc2/C1=C\c1ccncc1 [Compound I, (Z)-5-fluoro-2-methyl-(4-pyridylidene)-3-(N-benzyl)indenylacetamide hydrochloride]
histone-associated fragmented DNA in LNCaP cell cultures [8]: time-dependent increase | safety in human study [9]: safe | liver weights, 28-day study (28-day study in rats; 2000 mg/kg/day): statistically significant increase in liver weights | thyroid weights, 28-day study (28-day study in rats; 2000 mg/kg/day): statistically significant increases in thyroid weights | histopathological evaluation, 28-day study (28-day study in rats; generally limited to a small number of animals at 2000 mg/kg/day): traces of follicular cell hypertrophy, increased numbers of mitotic figures (suggestive of possible cell proliferation) in the thyroid gland and mild centrilobular hypertrophy in the liver | DNA fragmentation in PrEC cells [10]: did not affect DNA fragmentation | drug-related effects, single and seven consecutive doses in dogs [11]: At no time in either dosing phase were any obvious signs of drug-related effects observed | signs of toxicity, single dose in dogs ([11]; 1000 mg/kg): no signs of toxicity | hematology, blood chemistry, microscopic pathology, seven-day study [12]: No hematological or blood chemistry changes nor any microscopic pathology changes

CCN(CC)CCSC12CC(=O)OC1(C)/C(=C/c1ccc(S(C)(=O)=O)cc1)c1ccc(F)cc12 (racemic) [A, rac-threo-(E)-1-(N,N′-diethylaminoethanethio)-1-(butan-1′,4′-olido)-[3′,4′:1,2]-6-fluoro-2-methyl-3-(p-methylsulfonylbenzylidene)-indan]
Fold induction at 100 μM (apoptosis) [13]: <2.0 fold | % Inhibition at 100 μM (cyclooxygenase) (Cyclooxygenase (COX); 100 μM): <25% | % Inhibition at 10 μM (cGMP PDE) [5]: <25% | PDE Inhibition [5]: − | % Inhibition at 100 μM (growth) (HT-29 cells; 100 μM): 68% | Growth Inhibition (HT-29 cells): + + + | Apoptosis [6]: + + | Mammary Gland Organ Culture [7]: + +

COc1cc(/C=C2/C(C)=C(CC(=O)NCc3ccccc3)c3cc(F)ccc32)cc(OC)c1OC [Compound E, (Z)-5-Fluoro-2-methyl-1-(3,4,5-trimethoxybenzylidene)-3-indenylacetamide, N-benzyl]
competitive (with cGMP) inhibition/binding, Peak A [14]: competitively (with cGMP) bind; also recorded: competitively inhibited | competitive (with cGMP) inhibition/binding, Peak B [15]: competitively (with cGMP) binds; also recorded: competitively inhibited | COX-I inhibition [3]: neither test compound B and E significantly inhibits COX-I | % Inhibition at 10 μM (cGMP PDE) [5]: 75% | PDE Inhibition [5]: + + + + | IC50 [5]: 0.08 µM | Growth Inhibition (HT-29 cells): + + + + | Apoptosis [6]: + + + + | Mammary Gland Organ Culture [7]: + + + +
